Data set [1] has as its target T1, dopamine transporter (DAT) (Rattus norvegicus, UniProt P23977).
T1 construct: synaptosomes prepared from brains using standard procedures; from tissue; host or cells: caudate synaptosomes of male Sprague-Dawley rats
In words: Dopamine Release Assay in rat synaptosomes. It is filed as biochemical. As to conditions: rat synaptosomes preloaded with 30 nM [3H]DA; eight concentrations from 10 μM; four-parameter log-logistic fit; estimated.

Data set [2] deals with CAV1.2 (Voltage-gated L-type calcium channel) (Homo sapiens, UniProt Q13936). In words: Ion channel assay, blocker format. It counts as cell-based. As to conditions: read-out: IC50 (μM) Antag./Blocker/Inhibitor.
The conditions of data set [3]: humans, after 75 or 125 mg MDMA; standard deviation 1.3 hours; cited from earlier work.
For the next data set, the system named is DAT and SERT. As to conditions: cited from earlier work.
Another data set deals with DAT and NET. As to conditions: neurotransmitter release; cited from earlier work.
For data set [4], the target named is Nicotinic acetylcholine Receptor α4 β2 (nAChR(a4/b2)) (Homo sapiens, UniProt P17787+P43681). In words: Ion channel assay, blocker format. As to conditions: nAChR(a4/b2); Ion Channel; blocker; read-out: IC50 (μM) Antag./Blocker/Inhibitor. It counts as cell-based.
Data set [5] concerns the target Gamma-aminobutyric acid Receptor A (GABAA). In words: Ion channel assay, blocker format. It counts as cell-based. The conditions noted are these: GABAA; Ion Channel; blocker; read-out: IC50 (μM) Antag./Blocker/Inhibitor.

Structures can show the parent of a compound that is named as a salt.

T1 sequence (P23977 whole entry): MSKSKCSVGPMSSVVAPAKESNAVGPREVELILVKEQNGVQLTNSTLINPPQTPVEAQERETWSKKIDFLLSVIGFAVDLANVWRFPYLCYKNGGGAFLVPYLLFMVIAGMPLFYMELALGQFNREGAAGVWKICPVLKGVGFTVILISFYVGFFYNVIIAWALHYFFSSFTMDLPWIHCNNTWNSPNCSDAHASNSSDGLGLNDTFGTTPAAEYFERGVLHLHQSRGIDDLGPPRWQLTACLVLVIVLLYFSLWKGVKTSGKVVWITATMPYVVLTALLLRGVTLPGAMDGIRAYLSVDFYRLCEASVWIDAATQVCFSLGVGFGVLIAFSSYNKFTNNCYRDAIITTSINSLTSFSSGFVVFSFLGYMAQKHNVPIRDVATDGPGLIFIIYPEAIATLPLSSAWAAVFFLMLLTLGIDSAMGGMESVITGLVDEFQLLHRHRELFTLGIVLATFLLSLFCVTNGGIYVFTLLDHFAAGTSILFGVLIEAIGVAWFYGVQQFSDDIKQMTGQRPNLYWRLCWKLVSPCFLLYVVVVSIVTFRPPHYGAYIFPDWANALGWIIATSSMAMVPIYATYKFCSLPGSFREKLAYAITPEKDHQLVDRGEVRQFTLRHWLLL
Sequence of Nicotinic acetylcholine Receptor α4 β2 (nAChR(a4/b2)) (P43681 29-627 limits assumed): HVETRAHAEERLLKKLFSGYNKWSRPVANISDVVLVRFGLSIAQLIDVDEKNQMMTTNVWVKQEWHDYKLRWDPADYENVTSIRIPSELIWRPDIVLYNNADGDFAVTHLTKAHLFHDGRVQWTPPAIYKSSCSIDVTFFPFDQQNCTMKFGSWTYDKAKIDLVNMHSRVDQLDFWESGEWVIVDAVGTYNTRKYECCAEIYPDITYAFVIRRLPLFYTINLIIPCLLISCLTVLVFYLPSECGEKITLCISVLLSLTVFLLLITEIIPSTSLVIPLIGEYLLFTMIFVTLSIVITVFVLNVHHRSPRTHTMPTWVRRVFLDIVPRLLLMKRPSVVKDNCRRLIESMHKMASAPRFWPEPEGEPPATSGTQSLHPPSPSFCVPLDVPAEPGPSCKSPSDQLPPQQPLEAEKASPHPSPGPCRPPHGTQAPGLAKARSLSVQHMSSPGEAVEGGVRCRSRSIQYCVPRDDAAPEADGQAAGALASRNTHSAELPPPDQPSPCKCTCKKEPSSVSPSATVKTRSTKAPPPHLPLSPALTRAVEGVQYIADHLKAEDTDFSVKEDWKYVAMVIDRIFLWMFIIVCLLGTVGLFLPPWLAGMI
Sequence of Nicotinic acetylcholine Receptor α4 β2 (nAChR(a4/b2)) (P17787 26-502): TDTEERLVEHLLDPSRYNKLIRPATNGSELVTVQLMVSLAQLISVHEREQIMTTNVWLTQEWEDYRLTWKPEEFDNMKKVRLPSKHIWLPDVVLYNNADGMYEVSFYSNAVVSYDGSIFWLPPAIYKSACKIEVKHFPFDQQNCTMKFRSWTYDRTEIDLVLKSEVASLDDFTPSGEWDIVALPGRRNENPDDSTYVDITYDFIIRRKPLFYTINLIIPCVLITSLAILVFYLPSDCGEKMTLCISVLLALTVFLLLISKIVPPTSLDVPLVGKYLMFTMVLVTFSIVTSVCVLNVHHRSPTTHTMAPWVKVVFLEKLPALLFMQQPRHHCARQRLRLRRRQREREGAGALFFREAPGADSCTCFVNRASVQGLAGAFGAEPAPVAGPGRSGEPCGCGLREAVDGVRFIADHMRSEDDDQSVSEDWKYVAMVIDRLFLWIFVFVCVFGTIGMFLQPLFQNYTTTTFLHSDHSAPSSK

What is called EC50 is the concentration at which the effect is half-maximal. In the case of `CCC(Cc1ccn2ccccc12)NC` (stereo not shown) [Compound 25-14, 1-(indolizin-1-yl)-N-methylbutan-2-amine], the EC50 in data set [1] was 2710 nM.

On to `CNC(C)Cc1ccn2ccccc12` (stereo not shown) [Compound 26-5, 1-(indolizin-1-yl)-N-methylpropan-2-amine HCl salt], for which the EC50 in data set [1] was 61.9 nM.

As to `CCC(N)Cc1ccn2ccccc12` (stereo not shown) [Compound 27-1, 1-indolizin-1-ylbutan-2-amine HCl salt], in data set [1], the EC50 is 21800 nM.

For the molecule `COC(=O)C1=C(C)NC(C)=C(C(=O)OC(C)C)C1c1cccc2nonc12` (stereo not shown) [Isradipine, reference compound], in data set [2], the IC50 turned out to be 0.017 µM.

With `CNC(C)Cc1ccc2c(c1)OCO2` (stereo not shown) [MDMA], the “duration of acute therapeutic effects” value in data set [3] is 4.2 h. The “DAT/SERT IC50 ratio” value in the data set with DAT and SERT is on record as 0.08.

Consider `C[C@H](N)Cc1ccccc1` [d-amphetamine, dextroamphetamine], for which the “DAT/NET EC50 ratio” value with DAT and NET is reported as 0.9.

For the molecule `CN[C@@H](C)Cc1ccccc1` [d-methamphetamine], the “DAT/NET EC50 ratio” value with DAT and NET is 0.5.

For “Dihydro-AY-erythroidine [reference compound]”, in data set [4], the IC50 is 0.682 µM.

Regarding Picrotoxin [reference compound], the IC50 in data set [5] was 2.78 µM.

The record behind these values is patent US20250042900A1 (priority 2022, published 2025).
